From patent US10611740B2, “Aryl dihydro-2H-benzo[b][1,4]oxazine sulfonamide and related compounds for use as agonists of RORγ and the treatment of disease” (Lycera Corporation, priority 2015, dated 2020) come the findings set out here.

Experiment [1] deals with T1, RORγ-LBD (Homo sapiens, UniProt P51449).
T1 construct: made in house; host or cells: SF9 cells (baculovirus)
T1 sequence (P51449 269-508 limits assumed): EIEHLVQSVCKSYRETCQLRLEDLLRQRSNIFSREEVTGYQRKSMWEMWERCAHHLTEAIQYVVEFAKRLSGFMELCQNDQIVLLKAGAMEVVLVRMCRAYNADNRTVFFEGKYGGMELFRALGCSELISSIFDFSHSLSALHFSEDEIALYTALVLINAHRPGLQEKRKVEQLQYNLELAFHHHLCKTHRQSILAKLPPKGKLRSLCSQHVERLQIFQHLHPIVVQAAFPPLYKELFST
As to the kind of experiment: RORγ-Ligand Binding Domain (LBD) TR-FRET Assay.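 On TR-FRET Assay Max Response: 665/615 nm ratio relative to signal without ursolic acid or compound set at 100.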 The class given is biochemical. In outline: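 SF9 lysate containing His-RORγ-LBD, ~3 nM final; coactivator peptide biotin-SRC1 LXXLL, 200 nM final; ursolic acid 2 μM final; DMSO 1% final; Tris pH 7.0 buffer with KCl, EDTA, DTT, BSA. TR-FRET format.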
In general terms: In TR-FRET formats the signal depends on donor and acceptor labels being close together.

Experiment [2] has as its target T2, Gal4-RORγ-LBD (Homo sapiens, UniProt P51449).
T2 construct: expressed in transfected cells; host or cells: HEK-293 cells (pcDNA3.1neo plasmid)
T2 sequence (P51449 269-508 limits assumed): T1 sequence (P51449 269-508 limits assumed)
The experiment can be described thus: Gal4-RORγ Luciferase Reporter Assay in HEK-293T Cells. In kind it is cell-based. The settings on record: HEK-293 cells. A digest of the protocol: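 In transfected HEK-293 cells (Gal4-RORγ-LBD, Gal4-luciferase), test agents with 2 μM ursolic acid were incubated overnight at 37 °C before luminescent detection. Values are relative to the ursolic-acid-free, compound-free signal (100).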
Background: Reporter assays use an easily measured gene product as a stand-in for the process of interest.

The mark [3] stands for this setting: luciferase reporter, with 2 μM ursolic acid.

Broadly, the EC50 is the concentration needed to bring the measured effect to its halfway point. Higher therefore signals a need for much substance. On to `COc1cccc(-c2ccc3c(c2)N(S(=O)(=O)c2cccc(C(F)(F)F)c2)C[C@H](CCc2n[nH]c(=O)o2)O3)c1` [Compound 28E, (S)-5-(2-(6-(3-methoxyphenyl)-4-((3-(trifluoromethyl)phenyl)-sulfonyl)-3,4-dihydro-2H-benzo[b][1,4]oxazin-2-yl)ethyl)-1,3,4-oxadiazol-2(3H)-one], for which, in experiment [1], the EC50 is < 0.5 µM and the “TR-FRET Assay Max Response” value is reported as “**** (The symbol “****” indicates a value greater than 200)”. Further, in experiment [2] (setting [3]), the EC50 is < 0.5 µM and the “Gal4-RORγ Assay Max Response” value is listed as “** (The symbol “**” indicates a value in the range of greater than 90 to 150)”.
As to `COc1cc(F)cc(-c2ccc3c(c2)N(S(=O)(=O)c2cccc(C(F)(F)F)c2)C[C@H](CC(C)(C)C(=O)O)O3)c1` [Compound 32AG, (S)-3-(6-(3-fluoro-5-methoxy-phenyl)-4-((3-(trifluoromethyl)-phenyl)sulfonyl)-3,4-dihydro-2H-benzo[b][1,4]oxazin-2-yl)-2,2-dimethylpropanoic acid], in experiment [1], the concentration for a half-maximal effect (EC50) was < 0.5 µM and the “TR-FRET Assay Max Response” value is on record as “**** (The symbol “****” indicates a value greater than 200)”. Moreover, in experiment [2] (2 μM ursolic acid), the EC50 was < 0.5 µM and the “Gal4-RORγ Assay Max Response” value was “** (The symbol “**” indicates a value in the range of greater than 90 to 150)”.
Consider `O=C(O)CC[C@H]1CN(S(=O)(=O)c2cccc(C(F)(F)F)c2)c2cc(-c3cccc(F)c3Cl)ccc2O1` [Compound 2AH, (S)-3-(6-(2-chloro-3-fluoro-phenyl)-4-((3-(trifluoromethyl)-phenyl)sulfonyl)-3,4-dihydro-2H-benzo[b][1,4]oxazin-2-yl)propanoic acid], for which, in experiment [1], the EC50 is < 0.5 µM and the “TR-FRET Assay Max Response” value is “**** (The symbol “****” indicates a value greater than 200)”. Further, in experiment [2] (setting [3]), the EC50 is < 0.5 µM and the “Gal4-RORγ Assay Max Response” value is recorded as “*** (The symbol “***” indicates a value in the range of greater than 150 to 200)”.
Turning to `Cc1cccc(-c2ccc3c(c2)N(S(=O)(=O)c2cccc(C(F)(F)F)c2)C[C@H](CCC(=O)O)O3)c1F` [Compound 2AY, (S)-3-(6-(2-fluoro-3-methyl-phenyl)-4-((3-(trifluoro-methyl)phenyl)sulfonyl)-3,4-dihydro-2H-benzo[b][1,4]-oxazin-2-yl)propanoic acid], in experiment [1], the EC50 was < 0.5 µM and the “TR-FRET Assay Max Response” value is listed as “**** (The symbol “****” indicates a value greater than 200)”. Further, in experiment [2] (setting [3]), the EC50 is 0.5 to 5 µM and the “Gal4-RORγ Assay Max Response” value is “**** (The symbol “****” indicates a value greater than 200)”.
Turning to `O=C(O)CCNC(=O)CC[C@H]1CN(S(=O)(=O)c2cccc(C(F)(F)F)c2)c2cc(-c3cccc(Cl)c3)ccc2O1` [Compound 23D, (S)-3-(3-(6-(3-chlorophenyl)-4-((3-(trifluoromethyl)phenyl)-sulfonyl)-3,4-dihydro-2H-benzo[b][1,4]oxazin-2-yl)propanamido)propanoic acid], in experiment [1], the EC50 was < 0.5 µM and the “TR-FRET Assay Max Response” value is “*** (The symbol “***” indicates a value in the range of greater than 150 to 200)”. In experiment [2] (setting [3]), the EC50 was < 0.5 µM and the “Gal4-RORγ Assay Max Response” value is reported as “** (The symbol “**” indicates a value in the range of greater than 90 to 150)”.
`CO[C@@H](C)C(=O)NC[C@H]1CN(S(=O)(=O)c2cccc(C(F)(F)F)c2)c2cc(-c3cccc(F)c3Cl)ccc2O1` [Compound 30CI, (S)-N-(((S)-6-(2-chloro-3-fluorophenyl)-4-((3-(trifluoro-methyl)phenyl)sulfonyl)-3,4-dihydro-2H-benzo[b][1,4]-oxazin-2-yl)methyl)-2-methoxypropanamide]: in experiment [1], the EC50 was < 0.5 µM and the “TR-FRET Assay Max Response” value was “*** (The symbol “***” indicates a value in the range of greater than 150 to 200)”. Moreover, in experiment [2] (2 μM ursolic acid), the 50% effective concentration (EC50) is 0.5 to 5 µM and the “Gal4-RORγ Assay Max Response” value is “* (The symbol “*” indicates a value in the range of 25 to 90)”.
Regarding `Cc1ncc(F)cc1-c1ccc2c(c1)N(S(=O)(=O)c1cccc(C(F)(F)F)c1)C[C@H](CCC(=O)O)O2` [Compound 4AF, (S)-3-(6-(5-fluoro-2-methylpyridin-3-yl)-4-((3-(trifluoromethyl)phenyl)sulfonyl)-3,4-dihydro-2H-benzo[b][1,4]oxazin-2-yl)propanoic acid], in experiment [1], the EC50 is < 0.5 µM and the “TR-FRET Assay Max Response” value was “**** (The symbol “****” indicates a value greater than 200)”. In experiment [2] (setting [3]), the concentration giving a half-maximal response (EC50) was < 0.5 µM and the “Gal4-RORγ Assay Max Response” value is recorded as “** (The symbol “**” indicates a value in the range of greater than 90 to 150)”.
For the compound `Cn1ccnc1-c1ccc2c(c1)N(S(=O)(=O)c1cccc(C(F)(F)F)c1)C[C@H](CCC(=O)O)O2` [Compound 4L, (S)-3-(6-(1-methyl-1H-imidazol-2-yl)-4-((3-(trifluoromethyl)-phenyl)sulfonyl)-3,4-dihydro-2H-benzo[b][1,4]oxazin-2-yl)propanoic acid], in experiment [1], the EC50 is > 10 µM and the “TR-FRET Assay Max Response” value is “**** (The symbol “****” indicates a value greater than 200)”. For the same compound, the half-maximal effective concentration (EC50) in experiment [2] (setting [3]) was > 10 µM.
For `O=C(O)CC[C@H]1CN(S(=O)(=O)c2cccc(C(F)(F)F)c2)c2cc(-c3cccc(O)c3)ccc2O1` [Compound 2AU, (S)-3-(6-(3-hydroxyphenyl)-4-((3-(trifluoromethyl)phenyl)-sulfonyl)-3,4-dihydro-2H-benzo[b][1,4]oxazin-2-yl)propanoic acid], in experiment [1], the concentration for a half-maximal effect (EC50) was < 0.5 µM and the “TR-FRET Assay Max Response” value is “*** (The symbol “***” indicates a value in the range of greater than 150 to 200)”. In experiment [2] (setting [3]), the half-maximal effective concentration (EC50) was in the range of 0.5 to 5 µM and the “Gal4-RORγ Assay Max Response” value is “* (The symbol “*” indicates a value in the range of 25 to 90)”.
Consider `O=c1[nH]c(OCCC[C@H]2CN(S(=O)(=O)c3cccc(C(F)(F)F)c3)c3cc(-c4cc(F)cc(F)c4)ccc3O2)no1` [Compound 36A, (S)-3-(3-(6-(3,5-difluoro-phenyl)-4-((3-(trifluoro-methyl)phenyl)sulfonyl)-3,4-dihydro-2H-benzo[b][1,4]-oxazin-2-yl)propoxy)-1,2,4-oxadiazol-5(4H)-one], for which, in experiment [1], the concentration for a half-maximal effect (EC50) is < 0.5 µM and the “TR-FRET Assay Max Response” value is reported as “**** (The symbol “****” indicates a value greater than 200)”. Further, in experiment [2] (setting [3]), the EC50 is < 0.5 µM and the “Gal4-RORγ Assay Max Response” value is listed as “**** (The symbol “****” indicates a value greater than 200)”.
In the case of `O=C(O)CCC[C@H]1CN(S(=O)(=O)c2cccc(C(F)(F)F)c2)c2cc(-c3cccc(F)c3F)ccc2O1` [Compound 21A, (S)-4-(6-(2,3-difluorophenyl)-4-((3-(trifluoromethyl)phenyl)-sulfonyl)-3,4-dihydro-2H-benzo[b][1,4]oxazin-2-yl)butanoic acid], in experiment [1], the EC50 is < 0.5 µM and the “TR-FRET Assay Max Response” value is recorded as “**** (The symbol “****” indicates a value greater than 200)”. Moreover, in experiment [2] (setting [3]), the concentration giving a half-maximal response (EC50) was < 0.5 µM and the “Gal4-RORγ Assay Max Response” value was “** (The symbol “**” indicates a value in the range of greater than 90 to 150)”.
On to `COc1cc(Cl)cc(-c2ccc3c(c2)N(S(=O)(=O)c2cccc(C(F)(F)F)c2)C[C@H](CCC(=O)O)O3)c1` [Compound 2AO, (S)-3-(6-(3-chloro-5-methoxyphenyl)-4-((3-(trifluoromethyl)phenyl)-sulfonyl)-3,4-dihydro-2H-benzo[b][1,4]oxazin-2-yl)propanoic acid], for which, in experiment [1], the EC50 was < 0.5 µM and the “TR-FRET Assay Max Response” value is recorded as “**** (The symbol “****” indicates a value greater than 200)”. Moreover, in experiment [2] (setting [3]), the EC50 was < 0.5 µM and the “Gal4-RORγ Assay Max Response” value is on record as “*** (The symbol “***” indicates a value in the range of greater than 150 to 200)”.
On to `CC(C)(C[C@H]1CN(S(=O)(=O)c2cccc(C(F)(F)F)c2)c2cc(-c3cccc4c3OC(F)(F)O4)ccc2O1)C(=O)O` [Compound 32AC, (S)-3-(6-(2,2-difluorobenzo[d]-[1,3]dioxol-4-yl)-4-((3-(trifluoro-methyl)phenyl)sulfonyl)-3,4-dihydro-2H-benzo[b][1,4]oxazin-2-yl)-2,2-dimethylpropanoic acid], for which, in experiment [1], the EC50 is < 0.5 µM and the “TR-FRET Assay Max Response” value is “*** (The symbol “***” indicates a value in the range of greater than 150 to 200)”. In experiment [2] (2 μM ursolic acid), the EC50 was < 0.5 µM and the “Gal4-RORγ Assay Max Response” value is listed as “** (The symbol “**” indicates a value in the range of greater than 90 to 150)”.
Take `O=c1[nH]nc(CC[C@H]2CN(S(=O)(=O)c3cccc(C(F)(F)F)c3)c3cc(-c4cccc(C(F)(F)F)n4)ccc3O2)o1` [Compound 28A, (S)-5-(2-(4-((3-(trifluoromethyl)-phenyl)sulfonyl)-6-(6-(trifluoromethyl)pyridin-2-yl)-3,4-dihydro-2H-benzo[b][1,4]oxazin-2-yl)ethyl)-1,3,4-oxadiazol-2(3H)-one]: in experiment [1], the EC50 is < 0.5 µM and the “TR-FRET Assay Max Response” value is given as “**** (The symbol “****” indicates a value greater than 200)”. In experiment [2] (setting [3]), the EC50 was < 0.5 µM and the “Gal4-RORγ Assay Max Response” value is given as “** (The symbol “**” indicates a value in the range of greater than 90 to 150)”.
